This note sets out measurements from patent US20220401564A1 (DANA-FARBER CANCER INSTITUTE, INC., priority 2019, published 2022).

Experiment [1] addresses HDAC3 (Homo sapiens, UniProt O15379). Kind of experiment: HDAC enzymatic assay (Reaction Biology), fluorogenic substrate. Type of experiment: biochemical. Also noted: purchased Reaction Biology. As for the experimental part: (§1) Compounds 2 and 9 were tested in an enzymatic assay from Reaction Biology® against HDAC isoforms.
(§2) Base Reaction buffer: 50 mM Tris-HCl, pH8.0, 137 mM NaCl, 2.7 mM KCl, and 1 mM MgCl2. Add fresh: 1 mg/ml BSA, 1% DMSO
(§3) Fluorogenic HDAC General Substrate (HDAC1, HDAC2, HDAC3, HDAC6, HDAC10, and HDAC11): 50 μM, Arg-His-Lys-Lys(Ac)-AMC
(§4) 1. Delivered 2X enzyme in wells of reaction plate except in the control wells and added buffer to control wells. 2. Delivered compounds in 100% DMSO into the enzyme mixture by Acoustic technology (Echo550; nanoliter range). Spin down and pre-incubation. 3. Delivered 2X Substrate Mixture (Fluorogenic HDAC Substrate and co-factor if applicable) in all reaction wells to initiate the reaction. Spin and shake. 4. Incubated for 30 min for Class 2A, 1 h for HDAC1, 2, 3, and 6, and 2 h for the rest of HDAC isoforms and SIRTs at 30° C. with seal.
(§5) 5. Added Developer with Trichostatin A (or Nicotinamide for SIRTs) to stop the reaction and to generate fluorescent color. 6. The fluorescence that was generated was detected with excitation (Ex) at […] and emission (Em) at 460 nM by the EnVision Multilabel Plate Reader (PerkinElmer®, Santa Clara, Calif., USA).
(§6) IC50 values were derived from a 10-dose response curve. As shown in Tables 1-2, the addition of a linker and CRBN targeting group altered the isoform selectivity of the SAHA-based degrader compounds.

The target in experiment [2] is T1, HDAC6 (Homo sapiens, UniProt Q9UBN7).
T1 sequence (Q9UBN7 1-1215): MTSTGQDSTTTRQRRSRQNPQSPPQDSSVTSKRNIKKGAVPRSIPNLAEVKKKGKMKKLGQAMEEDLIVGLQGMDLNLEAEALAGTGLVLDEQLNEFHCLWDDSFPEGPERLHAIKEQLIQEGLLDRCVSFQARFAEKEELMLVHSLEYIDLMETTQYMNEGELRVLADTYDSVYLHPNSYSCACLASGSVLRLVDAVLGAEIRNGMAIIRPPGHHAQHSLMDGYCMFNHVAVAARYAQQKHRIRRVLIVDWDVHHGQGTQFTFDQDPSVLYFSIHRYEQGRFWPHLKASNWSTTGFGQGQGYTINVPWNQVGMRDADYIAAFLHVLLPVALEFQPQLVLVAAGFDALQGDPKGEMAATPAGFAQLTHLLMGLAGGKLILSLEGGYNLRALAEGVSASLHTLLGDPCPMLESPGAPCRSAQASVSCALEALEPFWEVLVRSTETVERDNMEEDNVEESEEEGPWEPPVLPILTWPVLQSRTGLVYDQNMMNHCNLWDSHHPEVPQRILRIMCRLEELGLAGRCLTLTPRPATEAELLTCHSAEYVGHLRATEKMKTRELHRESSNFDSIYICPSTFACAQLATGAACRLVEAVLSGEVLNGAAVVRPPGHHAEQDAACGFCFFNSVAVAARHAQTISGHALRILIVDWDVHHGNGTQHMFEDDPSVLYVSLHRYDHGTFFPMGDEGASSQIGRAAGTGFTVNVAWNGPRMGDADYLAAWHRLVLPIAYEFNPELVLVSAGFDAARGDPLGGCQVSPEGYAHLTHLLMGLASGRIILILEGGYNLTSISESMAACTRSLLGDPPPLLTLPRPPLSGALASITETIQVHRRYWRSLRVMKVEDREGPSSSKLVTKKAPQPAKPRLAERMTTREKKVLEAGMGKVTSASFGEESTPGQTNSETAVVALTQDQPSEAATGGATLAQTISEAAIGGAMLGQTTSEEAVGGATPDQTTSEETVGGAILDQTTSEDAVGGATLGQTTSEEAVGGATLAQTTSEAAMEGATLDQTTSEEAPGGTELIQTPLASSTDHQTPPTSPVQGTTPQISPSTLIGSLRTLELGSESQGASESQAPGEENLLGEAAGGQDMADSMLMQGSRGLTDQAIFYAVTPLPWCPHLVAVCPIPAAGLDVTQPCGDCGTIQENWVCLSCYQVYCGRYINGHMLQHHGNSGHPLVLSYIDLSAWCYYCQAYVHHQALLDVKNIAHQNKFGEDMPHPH
The experiment is described as above. It is filed as biochemical. Also noted: purchased Reaction Biology. As for the experimental part: as §1, §2, §3, §4, §5, §6

Broadly, the IC50 is the midpoint of a concentration-inhibition curve.

Chain of HDAC3 (O15379 whole entry, canonical isoform): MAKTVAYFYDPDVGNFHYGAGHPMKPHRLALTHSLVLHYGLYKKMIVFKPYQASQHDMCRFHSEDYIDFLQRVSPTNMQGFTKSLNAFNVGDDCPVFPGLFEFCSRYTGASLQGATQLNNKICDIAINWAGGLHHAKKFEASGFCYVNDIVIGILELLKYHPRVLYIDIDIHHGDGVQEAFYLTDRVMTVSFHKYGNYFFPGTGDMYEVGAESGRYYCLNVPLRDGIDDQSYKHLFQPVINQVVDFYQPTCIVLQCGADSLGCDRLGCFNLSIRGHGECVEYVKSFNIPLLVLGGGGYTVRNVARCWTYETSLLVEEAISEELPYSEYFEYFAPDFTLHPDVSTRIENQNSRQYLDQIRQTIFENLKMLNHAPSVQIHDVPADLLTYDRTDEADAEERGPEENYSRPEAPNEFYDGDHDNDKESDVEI
Chain of HDAC3 (Q9Y618 395-489 partner limits assumed): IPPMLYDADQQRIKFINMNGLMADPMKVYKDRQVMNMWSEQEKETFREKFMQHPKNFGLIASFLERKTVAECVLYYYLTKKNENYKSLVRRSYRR

Consider `Cc1ncsc1-c1ccc([C@H](C)NC(=O)[C@@H]2C[C@@H](O)CN2C(=O)[C@@H](NC(=O)CCOCCOCCN(CCc2c[nH]c3ccccc23)Cc2ccc(/C=C/C(=O)NO)cc2)C(C)(C)C)cc1` [Compound 2, (2S,4R)-1-((S)-14-(tert-butyl)-3-(4-((E)-3-(hydroxyamino)-3-oxoprop-1-en-1-yl)benzyl)-1-(1H-indol-3-yl)-12-oxo-6,9-dioxa-3,13-diazapentadecan-15-oyl)-4-hydroxy-N—((S)-1-(4-(4-methylthiazol-5-yl)phenyl)ethyl)pyrrolidine-2-carboxamide], for which the “inhibition of HDAC3 deacetylase activity in vitro (in words)” value in experiment [1] was “Moderate inhibition”. Besides, the IC50 in experiment [1] (10-dose response curve, read-out: Compound IC50 (M), HDAC3) stood at 5.77e-07 M; in experiment [2] (10-dose response curve, read-out: Compound IC50 (M), HDAC6) it was 7.85e-08 M. For the same compound, in experiment [2], the “inhibition of HDAC6 activity in vitro (in words)” value is “potently inhibited”.
